Reference: patent US11006631B2, “Substituted pyrimidinyloxy pyridine derivatives as herbicides” (FMC Corporation, priority 2015, dated 2021)

Legend:
Type in all cases: in vivo
corn (Zea mays) [1] = test: Test A postemergence, corn; conditions: 0 to 100 scale
Method in brief: (§1)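 Visual injury score, 0 = no effect, 100 = complete control, assigned against untreated controls about 10 days post-treatment. Greenhouse pots, loam/sand soil. Pre: directed soil spray at planting. Post: plants 2–10 cm, one- to two-leaf stage. Solvent/surfactant formulation.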

[2] = test system: barnyardgrass (Echinochloa crus-galli); test: Test A preemergence, barnyardgrass; conditions: 0 to 100 scale
Method in brief: as §1

[3] = test system: velvetleaf (Abutilon theophrasti); test: Test C postemergence, velvetleaf
Excerpt: (§2) Seeds of plant species selected from blackgrass (Alopecurus myosuroides), ryegrass, Italian (Italian ryegrass, Lolium multiflorum), wheat (winter wheat, Triticum aestivum), galium (catchweed bedstraw, Galium aparine), corn (Zea mays), crabgrass, large (large crabgrass, Digitaria sanguinalis), foxtail, giant (giant foxtail, Setaria faberii), lambsquarters (Chenopodium album), morningglory (Ipomoea coccinea), nutsedge, yellow (yellow nutsedge, Cyperus esculentus), pigweed (Amaranthus retroflexus), johnsongrass (Sorghum halepense), ragweed (common ragweed, Ambrosia elatior), soybean (Glycine max), barnyardgrass (Echinochloa crus-galli), oilseed rape (Brassica napus), waterhemp (common waterhemp, Amaranthus rudis), chickweed (common chickweed, Stellaria media), oat, wild (wild oat, Avena fatua), kochia (Kochia scoparia), and velvetleaf (Abutilon theophrasti) were planted in pots containing Redi-Earth® planting medium (Scotts Company, 14111 Scottslawn Road, Marysville, Ohio 43041) comprising spaghnum peat moss, vermiculite, wetting agent and starter nutrients and treated with postemergence applications of a test chemical formulated in a non-phytotoxic solvent mixture which included a surfactant. Plants ranged in height from 2 to 18 cm (1- to 4-leaf stage) for postemergence treatments. Treated plants and controls were maintained in a greenhouse for 13 to 15 days, after which time all species were compared to controls and visually evaluated. Plant response ratings, summarized in Table C, are based on a scale of 0 to 100 where 0 is no effect and 100 is complete control. A dash (-) response means no test result.

[4] = test system: lambsquarters (Chenopodium album); test: Test C postemergence, lambsquarters
Excerpt: as §2

[5] = test system: wheat (winter wheat, Triticum aestivum); test: Test C postemergence, wheat
Excerpt: as §2, with “Plants ranged in height from 2 to 18 cm (1- to 4-leaf stage) for postemergence treatments.” left out, “Plant response ratings, summarized in Table C, are based on a scale of 0 to 100 where 0 is no effect and 100 is complete control. A dash (-) response means no test result.” left out

[6] = test system: crabgrass, large (large crabgrass, Digitaria sanguinalis); test: Test C postemergence, crabgrass, large
Excerpt: as §2

[7] = test system: foxtail, giant (giant foxtail, Setaria faberii); test: Test C postemergence, foxtail, giant
Excerpt: as §2

[8] = test system: ducksalad (Heteranthera limosa); test: Test B flooded paddy test, ducksalad; conditions: Flood, 250 g ai/ha; scale of 0 to 100
Method in brief: (§3)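 Plants were grown to the 2-leaf stage, then pots were flooded to 3 cm above the soil and compound was applied directly into the paddy water, with that depth held throughout. After 13 to 15 days in a greenhouse, injury was rated visually against untreated controls on a 0 to 100 scale (100 = complete control).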

[9] = test system: oat, wild (wild oat, Avena fatua); test: Test C postemergence, oat, wild
Excerpt: as §2

[10] = test system: pigweed (Amaranthus retroflexus); test: Test A postemergence, pigweed; conditions: 0 to 100 scale
Method in brief: as §1

[11] = test system: foxtail, giant (giant foxtail, Setaria faberii); test: Test A postemergence, foxtail, giant; conditions: 0 to 100 scale
Method in brief: as §1

[12] = test system: ragweed (common ragweed, Ambrosia elatior); test: Test A postemergence, ragweed; conditions: 0 to 100 scale
Excerpt: (§4) Seeds of plant species selected from bamyardgrass (Echinochloa crus-galli), kochia (Kochia scoparia), ragweed (common ragweed, Ambrosia elatior), ryegrass, Italian (Italian ryegrass, Lolium multiflorum), foxtail, giant (giant foxtail, Setaria faberii), pigweed (Amaranthus retroflexus), crabgrass, large (large crabgrass, Digitaria sanguinalis), momingglory (Ipomoea spp.), velvetleaf (Abutilon theophrasti), wheat (Triticum aestivum), and corn (Zea mays) were planted into a blend of loam soil and sand and treated preemergence with a directed soil spray using test chemicals formulated in a non-phytotoxic solvent mixture which included a surfactant. At the same time, plants selected from these crop and weed species and also blackgrass (Alopecurus myosuroides), and galium (catchweed bedstraw, Galium aparine) were planted in pots containing the same blend of loam soil and sand and treated with postemergence applications of test chemicals formulated in the same manner. Plants ranged in height from 2 to 10 cm and were in the one- to two-leaf stage for the postemergence treatment. Treated plants and untreated controls were maintained in a greenhouse for approximately 10 days, after which time all treated plants were compared to untreated controls and visually evaluated for injury. Plant response ratings, summarized in Table A, are based on a 0 to 100 scale where 0 is no effect and 100 is complete control. A dash (-) response means no test result.

[13] = test system: galium (catchweed bedstraw, Galium aparine); test: Test A postemergence, galium; conditions: 0 to 100 scale
Excerpt: as §4

[14] = test system: blackgrass (Alopecurus myosuroides); test: Test A postemergence, blackgrass; conditions: 0 to 100 scale
Excerpt: as §4

corn (Zea mays) [15] = test: Test C postemergence, corn
Excerpt: as §2

[16] = test system: ryegrass, Italian (Italian ryegrass, Lolium multiflorum); test: Test A preemergence, ryegrass, Italian; conditions: 0 to 100 scale
Excerpt: as §4

[17] = test system: foxtail, giant (giant foxtail, Setaria faberii); test: Test A preemergence, foxtail, giant; conditions: 0 to 100 scale
Method in brief: as §1

[18] = test system: chickweed (common chickweed, Stellaria media); test: Test C postemergence, chickweed
Excerpt: as §2

[19] = test system: barnyardgrass (Echinochloa crus-galli); test: Test B flooded paddy test, barnyardgrass; conditions: Flood, 250 g ai/ha; scale of 0 to 100
Method in brief: as §3

## FC(F)c1cc(-c2ncccc2Oc2ncc(Cl)cn2)on1 [Compound 5, 5-chloro-2-[[2-[3-(difluoromethyl)-5-isoxazolyl]-3-pyridinyl]oxy]pyrimidine]
Corn (Zea mays) [1]; 31 g ai/ha
  Plant response rating, Corn: 0
Corn (Zea mays) [1]; 125 g ai/ha
  Plant response rating, Corn: 10
[2]; 31 g ai/ha
  Plant response rating, Barnyardgrass: 0
[2]; 125 g ai/ha
  Plant response rating, Barnyardgrass: 20
[3]; 16 g ai/ha
  Plant response rating, Velvetleaf: 40
[3]; 31 g ai/ha
  Plant response rating, Velvetleaf: 50
[3]; 62 g ai/ha
  Plant response rating, Velvetleaf: 70
[3]; 125 g ai/ha
  Plant response rating, Velvetleaf: 60
[4]; 16 g ai/ha
  Plant response rating, Lambsquarters: 35
[4]; 31 g ai/ha
  Plant response rating, Lambsquarters: 70
[4]; 62 g ai/ha
  Plant response rating, Lambsquarters: 55
[4]; 125 g ai/ha
  Plant response rating, Lambsquarters: 60
[5]; 16 g ai/ha
  Plant response rating, Wheat: 5
[5]; 31 g ai/ha
  Plant response rating, Wheat: 5
[6]; 16 g ai/ha
  Plant response rating, Crabgrass, Large: 10
[6]; 31 g ai/ha
  Plant response rating, Crabgrass, Large: 15
[6]; 62 g ai/ha
  Plant response rating, Crabgrass, Large: 15
[6]; 125 g ai/ha
  Plant response rating, Crabgrass, Large: 15
[7]; 16 g ai/ha
  Plant response rating, Foxtail, Giant: 0
[7]; 31 g ai/ha
  Plant response rating, Foxtail, Giant: 5
[7]; 62 g ai/ha
  Plant response rating, Foxtail, Giant: 5
[7]; 125 g ai/ha
  Plant response rating, Foxtail, Giant: 10
[8]
  Plant response rating, Ducksalad: 75
[9]; 16 g ai/ha
  Plant response rating, Oat, Wild: 0
[9]; 31 g ai/ha
  Plant response rating, Oat, Wild: 0
[9]; 62 g ai/ha
  Plant response rating, Oat, Wild: 0
[9]; 125 g ai/ha
  Plant response rating, Oat, Wild: 5
[10]; 31 g ai/ha
  Plant response rating, Pigweed: 80
[10]; 125 g ai/ha
  Plant response rating, Pigweed: 90
[11]; 31 g ai/ha
  Plant response rating, Foxtail, Giant: 0
[11]; 125 g ai/ha
  Plant response rating, Foxtail, Giant: 10
[12]; 31 g ai/ha
  Plant response rating, Ragweed: 20
[12]; 125 g ai/ha
  Plant response rating, Ragweed: 60
[13]; 31 g ai/ha
  Plant response rating, Galium: 40
[13]; 125 g ai/ha
  Plant response rating, Galium: 60
[14]; 31 g ai/ha
  Plant response rating, Blackgrass: 0
[14]; 125 g ai/ha
  Plant response rating, Blackgrass: 20
Corn (Zea mays) [15]; 16 g ai/ha
  Plant response rating, Corn: 5
Corn (Zea mays) [15]; 31 g ai/ha
  Plant response rating, Corn: 5
Corn (Zea mays) [15]; 62 g ai/ha
  Plant response rating, Corn: 5
Corn (Zea mays) [15]; 125 g ai/ha
  Plant response rating, Corn: 5
[16]; 31 g ai/ha
  Plant response rating, Ryegrass, Italian: 0
[16]; 125 g ai/ha
  Plant response rating, Ryegrass, Italian: 0
[17]; 31 g ai/ha
  Plant response rating, Foxtail, Giant: 10
[17]; 125 g ai/ha
  Plant response rating, Foxtail, Giant: 80
[18]; 16 g ai/ha
  Plant response rating, Chickweed: 35
[18]; 31 g ai/ha
  Plant response rating, Chickweed: 40
[18]; 62 g ai/ha
  Plant response rating, Chickweed: 55
[18]; 125 g ai/ha
  Plant response rating, Chickweed: 60
[19]
  Plant response rating, Barnyardgrass: 0
